Measured values published in patent US20250136568A1, “FUSED HETEROCYCLIC COMPOUNDS AS PI3KALPHA INHIBITORS” (Nanjing Zenshine Pharmaceuticals Co., Ltd., priority 2021, published 2025).
Read-outs that look alike come from different tables or passages of the source.

Key:
[1] = test system: PI3Kα H1047R mutation cell line T-47D; assay: Cell Proliferation IC50 Assay (CellTiter-Glo), T-47D; type: cell-based; conditions: T47D (H1047R), 72 hours, CellTiter-Glo, read-out: IC50 (μM) T47D
Excerpt: (§1) PI3Kα H1047R mutation cell line T-47D and MDA-MB-453, E545K mutation cell line MDA-MB-361 and PI3Kα wide type cell line SK-BR-3 were purchased from Cobioer Biotech (cat. no CBP60397, CBP60386, CBP60383 and CBP60413 respectively). The CellTiter-Glo Direct Cell Proliferation Assay Kit was purchased from Prornega (cat. No. G7573)
(§2) For cell proliferation assay in each cell line: • a. Prepare complete medium (R PMI 1640, DMEM or McCoys): Add FBS and appropriate additives according to the information sheet provided by the vendor. Mix gently. • b. Prepare single cell suspension and count the cell numbers and adjust cells to appropriate density. • c. Add 80 μL of cell suspension to 96-well opaque-walled clear bottom plates according to the planned plate layout and place the plates in the CO2 incubator overnight. • d. Prepare intermediate plate: 10 μl of diluted test compounds or staurosporine solution (200×) is added to a 96 deep well plate. Then 390 μl of culture medium without FBS is added to the respective wells. • e. Transfer 20 μL of the solutions from the above intermediate plate to the wells of the plate prepared containing 80 μL of the culture medium and cells. The total dilution is 200 folds. • f. The cells were then incubated at 5% CO2, 37° C. for 72 hours. • g. Equilibrate the plate and its contents to room temperature for approximately 30 minutes. • h. Add 100 μL of CellTiter-Glo reagent to the assay plate • i. Mix contents for 10 minutes on an orbital shaker to induce cell lysis. • j. Allow the plate to incubate at room temperature for 10 minutes to stabilize luminescent signal, • k. Paste the clear bottom with white back seal and record luminescence with Varioskan LUX plate reader.
(§3) Inhibition % and IC50 value were calculated by the formula described below: […]

[2] = test system: PI3Kα wide type cell line SK-BR-3; assay: Cell Proliferation IC50 Assay (CellTiter-Glo), SK-BR-3; type: cell-based; conditions: SK-BR-3 (PI3Kα wild type), 72 hours, CellTiter-Glo, read-out: IC50 (μM) SK-BR-3
Excerpt: as §1, §2, §3

Row | IC50 ([1]; Homo sapiens, T47D, 72 h) [µM] | IC50 ([2]; Homo sapiens) [µM] | IC50 [1] [µM] | IC50 [2] [µM] | SMILES | IC50 ([1]; Homo sapiens) [µM]
1 | 7.24 | > 10 |  |  | Cc1cc([C@H](C)Nc2ccccc2C(=O)O)c2oc(-c3ccc4nn(C)cc4c3)c(C)c(=O)c2c1 (single isomer, unassigned) [Example 49B] | 
2 | 0.99 | > 10 |  |  | Cc1cc([C@H](C)Nc2ccccc2C(=O)O)c2oc(-c3ccc(-c4cnn(C)c4)cc3)cc(=O)c2c1 (single isomer, unassigned) [Example 95B] | 
3 | 0.12 | > 10 |  |  | COC(=O)N1CCN(c2ccc(-c3oc4c([C@@H](C)Nc5ccccc5C(=O)O)cc(C)cc4c(=O)c3C)cn2)CC1 (single isomer, unassigned) [Example 155A] | 
4 | 5.06 | > 10 |  |  | COC(=O)N1CCN(c2ccc(-c3oc4c([C@H](C)Nc5ccccc5C(=O)O)cc(C)cc4c(=O)c3C)cn2)CC1 (single isomer, unassigned) [Example 155B] | 
5 | 0.065 | > 10 |  |  | Cc1cc([C@@H](C)Nc2ccccc2C(=O)O)c2oc(-c3ccc(OCC4CCCN4C)cc3)c(C)c(=O)c2c1 (single isomer, unassigned) [Example 172A] | 
6 |  |  | 0.063 | > 10 | Cc1cc([C@@H](C)Nc2ccccc2C(=O)O)c2oc(-c3ccc(OCC4CCCN4C)cc3)c(C)c(=O)c2c1 (single isomer, unassigned) [Example 172B] | 
7 | 1.54 | > 10 |  |  | Cc1cc(C(C)Nc2ccccc2C(=O)O)c2oc(-c3ccc4c(c3)CNC4=O)cc(=O)c2c1 (stereo not shown) [Example 5, 2-((1-(6-methyl-4-oxo-2-(1-oxoisoindolin-5-yl)-4H-chromen-8-yl)ethyl)amino)benzoic acid] | 
8 | 2.56 | > 10 |  |  | Cc1cc(C(C)Nc2ccccc2C(=O)O)c2oc(C3CCN(C(C)C(F)(F)F)CC3)cc(=O)c2c1 (stereo not shown) [Example 16, 2-((1-(6-methyl-4-oxo-2-(1-(1,1,1-trifluoropropan-2-yl)piperidin-4-yl)-4H-chromen-8-yl)ethyl)amino)benzoic acid] | 
9 | 2.07 | > 10 |  |  | Cc1cc(C(C)Nc2ccccc2C(=O)O)c2oc(C3=CCN(C(C)C(F)(F)F)CC3)cc(=O)c2c1 (stereo not shown) [Example 17, 2-((1-(6-methyl-4-oxo-2-(1-(1,1,1-trifluoropropan-2-yl)-1,2,3,6-tetrahydropyridin-4-yl)-4H-chromen-8-yl)ethyl)amino)benzoic acid] | 
10 | 0.9 | > 10 |  |  | Cc1cc(C(C)Nc2ccccc2C(=O)O)c2oc(-c3ccccn3)cc(=O)c2c1 (stereo not shown) [Example 31, 2-((1-(6-methyl-4-oxo-2-(pyridin-2-yl)-4H-chromen-8-yl)ethyl)amino)benzoic acid] | 
11 | 0.2 | > 10 |  |  | Cc1cc(C(C)Nc2ccccc2C(=O)O)c2oc(-c3ccc4cnccc4c3)cc(=O)c2c1 (stereo not shown) [Example 36, 2-((1-(2-(isoquinolin-6-yl)-6-methyl-4-oxo-4H-chromen-8-yl)ethyl)amino)benzoic acid] | 
12 | 2.51 | > 10 |  |  | Cc1cc(C(C)Nc2ccccc2C(=O)O)c2oc(-c3cnn(C4COC4)c3)cc(=O)c2c1 (stereo not shown) [Example 40, 2-((1-(6-methyl-2-(1-(oxetan-3-yl)-1H-pyrazol-4-yl)-4-oxo-4H-chromen-8-yl)ethyl)amino)benzoic acid] | 
13 | 1.43 | > 10 |  |  | Cc1cc(C(C)Nc2ccccc2C(=O)O)c2oc(-c3ccc(N4CCNCC4)cc3)cc(=O)c2c1 (stereo not shown) [Example 41, 2-((1-(6-methyl-4-oxo-2-(4-(piperazin-1-yl)phenyl)-4H-chromen-8-yl)ethyl)amino)benzoic acid] | 
14 | 0.28 | > 10 |  |  | Cc1cc(C(C)Nc2ccccc2C(=O)O)c2oc(-c3ccc(N4CCC(F)(F)CC4)cc3)cc(=O)c2c1 (stereo not shown) [Example 43, 2-((1-(2-(4-(4,4-difluoropiperidin-1-yl)phenyl)-6-methyl-4-oxo-4H-chromen-8-yl)ethyl)amino)benzoic acid] | 
15 | 5.08 | > 10 |  |  | Cc1cc(C(C)Nc2ccccc2C(=O)O)c2oc(-c3cc4n(c3)CCN(C)C4=O)c(C)c(=O)c2c1 (stereo not shown) [Example 72, 2-((1-(3,6-dimethyl-2-(2-methyl-1-oxo-1,2,3,4-tetrahydropyrrolo[1,2-a]pyrazin-7-yl)-4-oxo-4H-chromen-8-yl)ethyl)amino)benzoic acid] | 
16 | 2.01 | > 10 |  |  | Cc1cc(C(C)Nc2ccccc2C(=O)O)c2oc(-c3cc4n(n3)CCN(C)C4=O)c(C)c(=O)c2c1 (stereo not shown) [Example 73, 2-((1-(3,6-dimethyl-2-(5-methyl-4-oxo-4,5,6,7-tetrahydropyrazolo[1,5-a]pyrazin-2-yl)-4-oxo-4H-chromen-8-yl)ethyl)amino)benzoic acid] | 
17 | 0.15 | > 10 |  |  | Cc1cc(C(C)Nc2ccccc2C(=O)O)c2oc(-c3ccc(N4CCOCC4)nc3)c(C)c(=O)c2c1 (stereo not shown) [Example 81, 2-((1-(3,6-dimethyl-2-(6-morpholinopyridin-3-yl)-4-oxo-4H-chromen-8-yl)ethyl)amino)benzoic acid] | 
18 | > 10 | > 10 |  |  | Cc1cc(C(C)Nc2ccccc2C(=O)O)c2oc(-c3cnc4nn(C)cc4c3)cc(=O)c2c1 (stereo not shown) [Example 82, 2-((1-(6-methyl-2-(2-methyl-2H-pyrazolo[3,4-b]pyridin-5-yl)-4-oxo-41H-chromen-8-yl)ethyl)amino)benzoic acid] | 
19 | 0.13 | > 10 |  |  | Cc1cc(C(C)Nc2ccccc2C(=O)O)c2oc(-c3cc(F)c4nn(C)cc4c3)cc(=O)c2c1 (stereo not shown) [Example 85, 2-((1-(2-(7-fluoro-2-methy-2H-indazol-5-yl)-6-methyl-4-oxo-4H-chromen-8-yl)ethyl)amino)benzoic acid] | 
20 | 0.31 | > 10 |  |  | CCn1cc2cc(-c3cc(=O)c4cc(C)cc(C(C)Nc5ccccc5C(=O)O)c4o3)ccc2n1 (stereo not shown) [Example 93, 2-((1-(2-(2-ethyl-2H-indazol-5-yl)-6-methyl-4-oxo-41H-chromen-8-yl)ethyl)amino)benzoic acid] | 
21 | 1.02 | > 10 |  |  | Cc1cc(C(C)Nc2ccccc2C(=O)O)c2oc(-c3ccc4c(c3)CN(C)C4)cc(=O)c2c1 (stereo not shown) [Example 94, 2-((1-(6-methyl-2-(2-methylisoindolin-5-yl)-4-oxo-4-chromen-8-yl)ethyl)amino)benzoic acid] | 
22 | 0.29 | > 10 |  |  | CC(Nc1ccccc1C(=O)O)c1cc(F)cc2c(=O)cc(-c3ccc4nn(C)cc4c3)oc12 (stereo not shown) [Example 101, 2-((1-(6-fluoro-2-(2-methyl-2H-indazol-5-yl)-4-oxo-4H-chromen-8-yl)ethyl)amino)benzoic acid] | 
23 | 0.84 | > 10 |  |  | Cc1cc(C(C)Nc2ccccc2C(=O)O)c2nc(-c3ccc4nn(C)cc4c3)cc(=O)n2c1 (stereo not shown) [Example 108, 2-((1-(7-methyl-2-(2-methyl-2H-indazol-5-yl)-4-oxo-4H-pyrido[1,2-a]pyrimidin-9-yl)ethyl)amino)benzoic acid] | 
24 | > 10 | > 10 |  |  | Cc1cc(C(C)Nc2cnccc2C(=O)O)c2oc(-c3ccc4nn(C)cc4c3)cc(=O)c2c1 (stereo not shown) [Example 112, 3-((1-(6-methyl-2-(2-methyl-2H-indazol-5-yl)-4-oxo-4H-chromen-8-yl)ethyl)amino)isonicotinic acid] | 
25 | 0.67 | > 10 |  |  | Cc1cc(C(C)Nc2ncccc2C(=O)O)c2oc(-c3ccc4nn(C)cc4c3)cc(=O)c2c1 (stereo not shown) [Example 113, 2-((1-(6-methyl-2-(2-methyl-2H-indazol-5-yl)-4-oxo-4H-chromen-8-yl)ethyl)amino)nicotinic acid] | 
26 | 0.46 | > 10 |  |  | Cc1cc(C(C)Nc2cccnc2C(=O)O)c2oc(-c3ccc4nn(C)cc4c3)cc(=O)c2c1 (stereo not shown) [Example 114, 3-((1-(6-methyl-2-(2-methyl-21-indazol-5-yl)-4-oxo-4H-chromen-8-yl)ethyl)amino)picolinic acid] | 
27 | 0.97 | > 10 |  |  | Cc1cc(C(C)Nc2ccccc2C(=O)O)c2oc(-c3cc4cnccc4[nH]3)cc(=O)c2c1 (stereo not shown) [Example 116] | 

Row | SMILES | IC50 ([1]; Homo sapiens, T47D, 72 h) [µM] | IC50 ([2]; Homo sapiens) [µM] | IC50 [1] [µM] | IC50 [2] [µM] | IC50 ([1]; Homo sapiens) [µM]
28 | Cc1cc(C(C)Nc2ccccc2C(=O)O)c2oc(-c3cc4cn(C)nc4cn3)cc(=O)c2c1 (stereo not shown) [Example 83, 2-((1-(6-methyl-2-(2-methyl-2H-pyrazolo[3,4-c]pyridin-5-yl)-4-oxo-41H-chromen-8-yl)ethyl)amino)benzoic acid] |  | > 10 |  |  | 0.38
29 | CC(=O)N1CCN(c2ccc(-c3oc4c([C@@H](C)Nc5ccccc5C(=O)O)cc(C)cc4c(=O)c3C)nc2)CC1 [Example 115, (R)-2-((1-(2-(5-(4-acetylpiperazin-1-yl)pyridin-2-yl)-3,6-dimethyl-4-oxo-4H-chromen-8-yl)ethyl)amino)benzoic acid] |  | 3.43 |  |  | 0.074
